# According to patent US20230312561A1, “SOLID FORMS OF (Z)-METHYL 3-(((4-(N-METHYL-2-(4-METHYLPIPERAZIN-1-YL)ACETAMIDO)PHENYL)AMINO)(PHENYL)METHYLENE)-2-OXO-2,3-DIHYDRO-1H-PYRROLO[2,3-B]PYRIDINE-6-CARBOXYLATE AND SALTS THEREOF” (Angion Biomedica Corp., priority 2020, published 2023):
# How the values were obtained:
# Format in all cases: physicochemical
# [1] = Solid state stability in sealed vial (XRPD, TGA, HPLC)
# Protocol: High performance liquid chromatography (HPLC) was performed according to the conditions described in Table 1: […] Upon storage for the appropriate period, the entire sample was removed, and the resulting solids assessed via XRFD, HPLC and TGA. Sample preparation for HPLC was conducted using deionized water and a working concentration of 0.5 mg/mL. […] A control sample was packed and stored in an equivalent manner and tested at T=2 and 4 weeks. Form A was stable at 40° C. and 80° C. for at least up to 4 weeks.
# [2] = pH-dependent solubility (NaOH titration, pH 3-8); settings: 25° C.
# Protocol: A titration and solubility determination of Compound 1 Hydrochloride Form A (Type 1 Lot) was performed using NaOH over a pH range of 3-8. A solution was produced at 25° C. with magnetic agitation by combining 100 mg Compound 1 Hydrochloride Form A (Type 1 Lot) into 5 mL deionized water to give a concentration of 20 mg/mL within a clean glass vessel. […] The solution was slowly basified using 1.0 N, 0.1 N, and 0.01 N NaOH (with the lower concentrations being used to finely adjust pH close to the end point target pH and avoid overshooting) to achieve pH values of 4, 5, 5.5, 6, 7, and 8. […] The concentration of the test solution was lowered at pH 6 from 20 mg/mL to 5 mg/mL with repeat testing at each concentration to illustrate salt impact. Each pH value was allowed to equilibrate to stability prior to solubility evaluation via HPLC assessment of the clarified liquors. Dilution by 100× or 50× into the working range was performed using deionized water.
# [3] = Biorelevant solubility (water, saline, FaSSIF, FeSSIF, FaSSGF, 37° C.)
# Protocol: Due to pH drift in a previous study (see Example 12.1), in order to obtain a more accurate pH solubility evaluation, a study was designed using water, saline, FaSSIF (fasted state simulated intestinal fluid, pH 6.5), […] (fed state simulated intestinal fluid, pH 5.0), and FaSSGF (fasted state simulated gastric fluid, pH 1.6), which would ensure ending pH and buffer pH remained the same. […] The study design was successful, and all initial pH values were maintained. […] The pH was measured constantly during the addition up to the point of movement in the buffer, at which point additions were halted and the solutions or suspensions matured over 48 hours at 37° C. Samples were taken for solubility evaluation at the specified time-points and clarified through 0.45 micron filters and pH measured on the settled suspensions. Solubility was determined vs a 0.5 mg/mL reference. 35 mg portions were added to FaSSGF and FeSSIF maintaining solutions.
# [4] = 40° C., sealed vial, T = 1 week
# [5] = 40° C., sealed vial, T = 2 weeks
# [6] = 40° C., sealed vial, T = 4 weeks
# [7] = 80° C., sealed vial, T = 1 week
# [8] = 80° C., sealed vial, T = 2 weeks
# [9] = 80° C., sealed vial, T = 4 weeks
# [10] = 150° C., sealed vial, T = 1 week
structure (smiles),measurement,setting,value
COC(=O)c1ccc2c(c1)NC(=O)/C2=C(\Nc1ccc(N(C)C(=O)CN2CCN(C)CC2)cc1)c1ccccc1.Cl [Compound 1 Hydrochloride Form A (Type 1 Lot)],solid state stability in sealed vial,"[1]; 40° C. and 80° C., at least up to 4 weeks",stable
same,HPLC (%),[1]; [4],99.43%
same,TGA (%),[1]; [4],12.01%
same,HPLC (%),[1]; [5],99.43%
same,TGA (%),[1]; [5],12.15%
same,HPLC (%),[1]; [6],99.65%
same,TGA (%),[1]; [6],11.6%
same,XRPD,[1]; [6],Form A
same,HPLC (%),[1]; [7],99.53%
same,TGA (%),[1]; [7],3.76%
same,HPLC (%),[1]; [8],99.45%
same,TGA (%),[1]; [8],3.71%
same,HPLC (%),[1]; [9],99.59%
same,TGA (%),[1]; [9],3.35%
same,HPLC (%),[1]; [10],36.6%
same,TGA (%),[1]; [10],1.14%
same,HPLC (%),"[1]; Ambient (control), T = 0",99.54%
same,TGA (%),"[1]; Ambient (control), T = 0",12.07%
same,HPLC (%),"[1]; Ambient (control), T = 2 weeks",99.43%
same,TGA (%),"[1]; Ambient (control), T = 2 weeks",11.99%
same,HPLC (%),"[1]; Ambient (control), T = 4 weeks",99.53%
same,TGA (%),"[1]; Ambient (control), T = 4 weeks",12.15%
same,XRPD,"[1]; Ambient (control), T = 4 weeks",Form A
same,initial pH reading of solution,"[2]; 20 mg/mL in deionized water, stable over 10 minutes",3.03
same,Solubility,"[2]; pH 3.03, starting concentration 20 mg/mL",>20 mg/mL
same,Solubility,"[2]; pH 4.0, starting concentration 20 mg/mL",>20 mg/mL
same,Solubility,"[2]; pH 5.0, starting concentration 20 mg/mL",16.0 mg/mL
same,Solubility,"[2]; pH 5.5, starting concentration 20 mg/mL",0.7 mg/mL
same,Solubility,"[2]; pH 6.0, starting concentration 5 mg/mL",0.06 mg/mL
same,Solubility,"[2]; pH 6.0, starting concentration 20 mg/mL",0.06 mg/mL
same,Solubility,"[2]; pH 7.0, starting concentration 5 mg/mL",0.05 mg/mL
same,Solubility,"[2]; pH 8.0, starting concentration 5 mg/mL",0.001 mg/mL
same,solubility in saline,[3],> 50 mg/mL
same,solubility in water,[3],> 50 mg/mL
same,Final pH,[3]; 0.9% NaCl,3.03
same,Solubility (mg/mL) T = 1 h,[3]; 0.9% NaCl,>50 mg/mL
same,Solubility (mg/mL) T = 3 h,[3]; 0.9% NaCl,>50 mg/mL
same,Solubility (mg/mL) T = 6 h,[3]; 0.9% NaCl,>50 mg/mL
same,Solubility (mg/mL) T = 24 h,[3]; 0.9% NaCl,>50 mg/mL
same,Final pH,[3]; FaSSGF (starting pH 1.6),1.65
same,Solubility (mg/mL) T = 1 h,[3]; FaSSGF (starting pH 1.6),>35 mg/mL
same,Solubility (mg/mL) T = 3 h,[3]; FaSSGF (starting pH 1.6),>35 mg/mL
same,Solubility (mg/mL) T = 6 h,[3]; FaSSGF (starting pH 1.6),>35 mg/mL
same,Solubility (mg/mL) T = 24 h,[3]; FaSSGF (starting pH 1.6),>35 mg/mL
same,Final pH,[3]; FaSSIF (starting pH 6.5),6.13
same,Solubility (mg/mL) T = 1 h,[3]; FaSSIF (starting pH 6.5),2.41 mg/mL
same,Solubility (mg/mL) T = 3 h,[3]; FaSSIF (starting pH 6.5),3.38 mg/mL
same,Solubility (mg/mL) T = 6 h,[3]; FaSSIF (starting pH 6.5),3.74 mg/mL
same,Solubility (mg/mL) T = 24 h,[3]; FaSSIF (starting pH 6.5),5.12 mg/mL
same,Final pH,[3]; FeSSIF (starting pH 5.0),4.98
same,Solubility (mg/mL) T = 1 h,[3]; FeSSIF (starting pH 5.0),>35 mg/mL
same,Solubility (mg/mL) T = 3 h,[3]; FeSSIF (starting pH 5.0),>35 mg/mL
same,Solubility (mg/mL) T = 6 h,[3]; FeSSIF (starting pH 5.0),>35 mg/mL
same,Solubility (mg/mL) T = 24 h,[3]; FeSSIF (starting pH 5.0),>35 mg/mL
same,Final pH,[3]; Water,3.04
same,Solubility (mg/mL) T = 1 h,[3]; Water,>50 mg/mL
same,Solubility (mg/mL) T = 3 h,[3]; Water,>50 mg/mL
same,Solubility (mg/mL) T = 6 h,[3]; Water,>50 mg/mL
same,Solubility (mg/mL) T = 24 h,[3]; Water,>50 mg/mL
same,solubility in FeSSIF,[3]; pH 5.0,> 50 mg/mL
